The numbers were not newly measured in paper PMC12845312, “Hydrazonylthiazole Derivatives as Dual EGFR and ALR2 Inhibitors: Design, Synthesis, and Comprehensive In Vitro and In Silico Evaluation for Potential Anticancer Activity” (Pharmaceuticals, 2025), which cites them from elsewhere.

A word on the IC50: it is the concentration that inhibits the measured activity by half.

One data set has as its system A549 cells. On the set-up: method as in doi:10.1016/j.molstruc.2024.139067. Particulars: read-out: IC50 against A549 cells; cited from earlier work.
A further data set has as its target T1, EGFR (Homo sapiens, UniProt P00533).
T1 construct: purchased Promega V3831
The conditions noted are these: read-out: EGFR inhibition IC50 (converted); cited from earlier work.

Another data set has as its system MCF-7 cells. The conditions noted are these: read-out: IC50 against MCF-7 cells; cited from earlier work.

T1 sequence (P00533 25-1210): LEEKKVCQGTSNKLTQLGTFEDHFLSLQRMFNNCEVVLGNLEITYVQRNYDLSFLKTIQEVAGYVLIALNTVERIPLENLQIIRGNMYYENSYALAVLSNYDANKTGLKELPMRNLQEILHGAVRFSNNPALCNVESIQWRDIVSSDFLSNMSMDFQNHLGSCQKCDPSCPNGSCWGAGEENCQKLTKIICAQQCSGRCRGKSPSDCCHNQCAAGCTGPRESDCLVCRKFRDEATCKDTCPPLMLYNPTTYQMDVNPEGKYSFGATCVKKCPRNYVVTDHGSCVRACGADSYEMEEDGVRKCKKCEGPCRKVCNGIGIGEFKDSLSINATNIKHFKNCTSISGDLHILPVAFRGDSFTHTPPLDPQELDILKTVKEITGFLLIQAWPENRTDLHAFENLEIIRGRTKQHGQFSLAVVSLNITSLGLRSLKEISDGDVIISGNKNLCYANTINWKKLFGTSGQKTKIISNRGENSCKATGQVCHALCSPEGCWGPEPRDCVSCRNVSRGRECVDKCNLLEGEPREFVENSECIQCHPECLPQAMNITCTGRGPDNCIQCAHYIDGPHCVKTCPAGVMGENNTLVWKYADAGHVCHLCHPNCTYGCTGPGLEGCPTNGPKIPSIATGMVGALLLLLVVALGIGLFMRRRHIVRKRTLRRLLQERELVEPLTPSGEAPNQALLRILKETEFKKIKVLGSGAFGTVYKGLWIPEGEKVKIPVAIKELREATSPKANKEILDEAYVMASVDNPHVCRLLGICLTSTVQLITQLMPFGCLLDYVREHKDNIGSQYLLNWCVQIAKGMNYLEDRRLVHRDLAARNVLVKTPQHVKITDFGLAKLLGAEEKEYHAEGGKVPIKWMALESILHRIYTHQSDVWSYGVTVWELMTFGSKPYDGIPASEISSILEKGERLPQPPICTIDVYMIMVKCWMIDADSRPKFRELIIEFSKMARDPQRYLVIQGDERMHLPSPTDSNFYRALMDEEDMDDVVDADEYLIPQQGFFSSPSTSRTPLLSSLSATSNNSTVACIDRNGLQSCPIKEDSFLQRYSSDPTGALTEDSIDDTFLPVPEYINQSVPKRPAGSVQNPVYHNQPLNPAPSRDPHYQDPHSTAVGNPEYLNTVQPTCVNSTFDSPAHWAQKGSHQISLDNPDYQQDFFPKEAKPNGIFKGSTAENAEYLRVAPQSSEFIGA

`O=[N+]([O-])c1ccc(-c2csc(N/N=C/c3c4ccccc4cc4ccccc34)n2)cc1` [Compound A5]: the figures for the IC50 in the data set with A549 cells, on EGFR and in the data set with MCF-7 cells were 8.51 µM, 0.88 µM and 7 µM, respectively.
